Assay results: publication PMC7962978, “PSMA-D4 Radioligand for Targeted Therapy of Prostate Cancer: Synthesis, Characteristics and Preliminary Assessment of Biological Properties” (International Journal of Molecular Sciences, 2021)

What was measured:
[1] = system: LNCaP cells; assay: Cell uptake (total binding) and internalization in LNCaP cells; type: cell-based, human; conditions: 37 °C, 2 h
Protocol: To determine cell uptake and internalization of [^177Lu]Lu-PSMA-D4 and [^90Y]Y-PSMA-D4, LNCaP cells (5 × 10^5 cells well^−1) were incubated in un-supplemented RPMI 1640 medium with one concentration of tested radioligands on 12-well plates in 37 °C per 2 h. After the appropriate time, the medium was removed, and cells were washed twice using phosphate buffer saline (PBS, IITD PAN, Wroclaw, Poland). The cells were treated twice with 1 mL of 50 mM glycine in 0.1 M NaCl at a pH of 2.8 and incubated for 5 min at room temperature to collect extracellularly bound compound. The internalization was determined by measuring the radioactivity of 1mL of 1 M NaOH used for cell lysis. Total binding was calculated as a sum of the membrane and internalized fractions measured using Wallac Wizard 1470 γ counter. As a control, [^177Lu]Lu-PSMA-617 and [^68Ga]Ga-PSMA-11 were used.

[2] = target: T1, PSMA antigen (Homo sapiens, UniProt Q04609); assay: Saturation radioligand binding assay on LNCaP (PSMA positive) and PC3 (PSMA negative) cell membranes
T1 construct: PSMA antigen expressed on LNCaP cell membranes; endogenous in cells; host or cells: LNCaP cell membranes (PC3 membranes as PSMA-negative control)
T1 sequence (Q04609 whole entry): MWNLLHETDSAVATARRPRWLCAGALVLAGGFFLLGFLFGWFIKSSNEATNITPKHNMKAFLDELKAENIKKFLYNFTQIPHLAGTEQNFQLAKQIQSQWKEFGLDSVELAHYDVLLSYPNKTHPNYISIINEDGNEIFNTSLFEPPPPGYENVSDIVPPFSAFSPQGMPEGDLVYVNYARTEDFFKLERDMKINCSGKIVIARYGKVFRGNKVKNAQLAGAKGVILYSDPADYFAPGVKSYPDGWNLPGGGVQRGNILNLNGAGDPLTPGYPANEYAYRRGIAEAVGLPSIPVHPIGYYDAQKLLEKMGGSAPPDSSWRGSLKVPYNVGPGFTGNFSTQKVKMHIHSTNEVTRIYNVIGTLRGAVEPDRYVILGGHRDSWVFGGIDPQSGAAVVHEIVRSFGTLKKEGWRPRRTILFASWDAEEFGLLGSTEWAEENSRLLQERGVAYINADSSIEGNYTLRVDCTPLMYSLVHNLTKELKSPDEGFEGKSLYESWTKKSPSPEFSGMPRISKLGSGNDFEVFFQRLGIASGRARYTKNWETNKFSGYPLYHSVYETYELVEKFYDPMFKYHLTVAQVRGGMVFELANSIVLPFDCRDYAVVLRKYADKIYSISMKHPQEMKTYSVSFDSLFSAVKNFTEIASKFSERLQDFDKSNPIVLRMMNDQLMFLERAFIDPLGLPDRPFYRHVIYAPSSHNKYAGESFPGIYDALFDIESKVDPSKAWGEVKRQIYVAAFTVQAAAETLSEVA
Protocol: The equilibrium constant (KD) was determined by a saturation binding experiment performed in PSMA positive LNCaP and PSMA negative PC3 cell membranes isolated according to the procedure developed by Fichna et al.. The 50 mcL of LNCaP and PC3 cell membranes were seeded on special MultiScreen™ 96 well filter plates (Merck, Warsaw, Poland) and incubated for 2 h with increasing concentration of [^177Lu]Lu-PSMA-D4, [^90Y]Y-PSMA-D4, and […] (0.016–194 nM) at 37 °C. After incubation, the unbound radiocomplexes were filtered under vacuum, and the membranes were washed twice using PBS. The filters containing membranes with the attached radiotracer were extruded into tubes using MultiScreen Multile Punch (Merck). The number of associated inhibitors was determined by measuring the radioactivity of squeezed filters using Wallac Wizard 1470 γ counter. The KD and Bmax were calculated by nonlinear regression using the GraphPad Prism statistic program.

[3] = system: LNCaP tumor-bearing mice; assay: Ex vivo biodistribution in mice bearing LNCaP tumor
Protocol: An experimental tumor murine model was induced using LNCaP cell, which grew to 80–90% confluence before trypsinization and formulation in Matrixgel™ Basement Membrane Matrix (Bedford, MA, USA) for implantation into mice. The mice were subcutaneously injected in the shoulder with 200 mcL bolus containing a suspension of 10^6 freshly harvested cell line LNCaP in Matrixgel™. This procedure was performed under anaesthesia with 2% isoflurane. The animals were kept under pathogen-free condition, and experiments were performed 2–3 weeks later when a tumor reached a volume of approximately 150 ± 60 mm^3. Then, the animals were randomized into two groups (25 mice per group, five mice per time point): Group 1, treated with a single intravenous injection of [^90Y]Y-PSMA-D4 (0.1 mL, 0.1 mcg, 15.5 MBq, SA 16.7 GBq mg^−1 = 17.2 GBq mcmol^−1) and Group 2, treated with a single intravenous injection of [^47Sc]Sc-PSMA-D4 (0.1 mL, 0.19 mcg, 10 MBq, SA 4.8 GBq mg^−1 = 4.57 GBq mcmol^−1).
At 1, 2, 4, 6, 24, and 48 h after injection, the animals were euthanized by cervical dislocation and dissected. Selected organs and tissues were assayed for their radioactivity and weighted. The physiological distribution was calculated and expressed in terms of the percentage of administrated radioactivity found in each of the selected organs or tissues per gram (%ID g^−1).
Results are provided as mean ± SD. The results of physiological distribution are presented as a percentage of the dose administered per gram of tissue (%ID g^−1) as average value with standard deviation (%ID g^−1; mean ± standard deviation (SD)) with n representing the number of animals per group. Data were statistically analyzed using GraphPad Prism version 8.0.0 for Window.

[4] = Lipophilicity determination (logD), shake-flask method; type: physicochemical; conditions: n-octanol / PBS pH 7.4, shake-flask
Protocol: The partition coefficient logD of the radioligands was determined by the shake-flask method. The solution of 10 to 50 MBq of radiolabeled PSMA ligands (D-4, 617, 11, I&T) in 1.0 mL of phosphate-buffered saline (PBS, pH 7.4) was added to 1.0 mL of presaturated n-octanol solution (n = 3). Vials were shaken vigorously for 10 min. To achieve quantitative phase separation, the vials were centrifuged at 1600 rpm for 5 min. The radioactivity concentration in a defined volume of both the aqueous and the organic phase in six replicates each was measured in a γ-counter (Wizard 1470, Wallac, Turku, Finland). The partition coefficient was calculated as the logarithm of the ratio between counts per minute (cpm) measured in the n-octanol phase to the PBS phase counts.

[5] = system: LNCaP tumor-bearing mice; assay: Cerenkov luminescence imaging (CLI) of LNCaP tumor-bearing mice; type: in vivo; conditions: 2-48 h p.i.
Protocol: The PhotonIMAGER Optima system (Biospace Lab, Nesles-la-Vallée, France) was used for the non-invasive detection, localization, and quantification of yttrium-90 signal from live animals based on Cerenkov luminescence imaging. It was feasible due to high-energy β^− particle emission produces continuous spectrum light photons or Cerenkov radiation. Optical imaging of [^90Y]Y-PSMA-D4 in LNCaP cell grafted mice was performed contemporaneously with ex vivo studies. The animals were placed individually in an induction chamber, where anaesthesia was induced with 5% isoflurane (Iso-Vet, Piramal Healthcare UK Limited, West Drayton, UK) in 100% oxygen with a delivery rate of 2 L min^−1 until loss of righting reflex. After induction, the animals were moved to the optical chamber. Anaesthesia was then maintained with 1.5–2% isoflurane in 100% oxygen with a flow of 1.5 L min^−1 administered through a facemask connected to a coaxial circuit. Body temperature was maintained at 37 °C by a heating table inside the chamber. At recovery, all animals received 100% oxygen until recovery of righting reflex. No mice were restrained during anaesthesia.

In the case of `O=C([O-])CN1CCN(CC(=O)[O-])CCN(CC(=O)NCC2CCC(C(=O)NC(Cc3c[nH]c4ccccc34)C(=O)NCCCCC(NC(=O)NC(CCC(=O)O)C(=O)O)C(=O)O)CC2)CCN(CC(=O)[O-])CC1.[90Y+3]` (centres unmarked) [[^90Y]Y-PSMA-D4], the Internalization [1] is reported as 35.4%, the “Total Binding” value [1] is reported as 16.8% and the Kd ([2]; LNCaP cell membranes, 2 h, 37 °C) is reported as 4.5 ± 2.1 nM. For the same compound, the “Specific Binding” value ([2]; total binding on LNCaP minus non-specific binding on PC3 membranes) was 99.9 ± 0.1%, the “T/B (ratio tumor to blood)” value ([3]; 2 h after i.v. injection) was 323.7 and the “T/K (ratio tumor to kidneys)” value ([3]; 2 h after i.v. injection) was 7.6. For the same compound, the “T/M (ratio tumor to muscle)” value ([3]; 2 h after i.v. injection) was 97.0, the blood ([3]; 2 h after i.v. injection) was 0.06 ± 0.01 %ID g^−1 and the kidneys ([3]; 2 h after i.v. injection) was 2.70 ± 0.20 %ID g^−1. The large intestine ([3]; 2 h after i.v. injection) was 0.12 ± 0.05 %ID g^−1, the liver ([3]; 2 h after i.v. injection) was 0.08 ± 0.00 %ID g^−1 and the muscle ([3]; 2 h after i.v. injection) was 0.21 ± 0.13 %ID g^−1. The small intestine ([3]; 2 h after i.v. injection) was 0.32 ± 0.13 %ID g^−1, the spleen ([3]; 2 h after i.v. injection) was 0.19 ± 0.06 %ID g^−1 and the stomach ([3]; 2 h after i.v. injection) was 0.10 ± 0.04 %ID g^−1. For the same compound, the tumor ([3]; 2 h after i.v. injection) was 20.24 ± 5.52 %ID g^−1, the urine ([3]; 2 h after i.v. injection) was 96.08 ± 0.53 %ID and the “T/B (ratio tumor to blood)” value ([3]; 4 h after i.v. injection) was 312.9. The “T/K (ratio tumor to kidneys)” value ([3]; 4 h after i.v. injection) was 9.7, the “T/M (ratio tumor to muscle)” value ([3]; 4 h after i.v. injection) was 324.4 and the blood ([3]; 4 h after i.v. injection) was 0.05 ± 0.03 %ID g^−1. It also gave a kidneys ([3]; 4 h after i.v. injection) of 1.70 ± 0.13 %ID g^−1, a large intestine ([3]; 4 h after i.v. injection) of 0.32 ± 0.16 %ID g^−1 and a liver ([3]; 4 h after i.v. injection) of 0.08 ± 0.01 %ID g^−1. The muscle ([3]; 4 h after i.v. injection) was 0.05 ± 0.02 %ID g^−1, the small intestine ([3]; 4 h after i.v. injection) was 0.30 ± 0.14 %ID g^−1 and the spleen ([3]; 4 h after i.v. injection) was 0.17 ± 0.06 %ID g^−1. The stomach ([3]; 4 h after i.v. injection) was 0.11 ± 0.05 %ID g^−1, the tumor ([3]; 4 h after i.v. injection) was 16.40 ± 6.88 %ID g^−1 and the urine ([3]; 4 h after i.v. injection) was 95.47 ± 3.07 %ID. For the same compound, the “T/B (ratio tumor to blood)” value ([3]; 6 h after i.v. injection) was 131.2, the “T/K (ratio tumor to kidneys)” value ([3]; 6 h after i.v. injection) was 8.4 and the “T/M (ratio tumor to muscle)” value ([3]; 6 h after i.v. injection) was 983.7. It also gave a blood ([3]; 6 h after i.v. injection) of 0.06 ± 0.01 %ID g^−1, a kidneys ([3]; 6 h after i.v. injection) of 0.98 ± 0.38 %ID g^−1 and a large intestine ([3]; 6 h after i.v. injection) of 0.20 ± 0.02 %ID g^−1. It also gave a liver ([3]; 6 h after i.v. injection) of 0.31 ± 0.07 %ID g^−1, a muscle ([3]; 6 h after i.v. injection) of 0.01 ± 0.01 %ID g^−1 and a small intestine ([3]; 6 h after i.v. injection) of 0.14 ± 0.11 %ID g^−1. The spleen ([3]; 6 h after i.v. injection) was 1.05 ± 0.29 %ID g^−1, the stomach ([3]; 6 h after i.v. injection) was 0.04 ± 0.03 %ID g^−1 and the tumor ([3]; 6 h after i.v. injection) was 8.28 ± 1.97 %ID g^−1. For the same compound, the urine ([3]; 6 h after i.v. injection) was 96.57 ± 2.44 %ID, the “T/B (ratio tumor to blood)” value ([3]; 24 h after i.v. injection) was 257.6 and the “T/K (ratio tumor to kidneys)” value ([3]; 24 h after i.v. injection) was 29.0. For the same compound, the “T/M (ratio tumor to muscle)” value ([3]; 24 h after i.v. injection) was 387.4, the blood ([3]; 24 h after i.v. injection) was 0.03 ± 0.03 %ID g^−1 and the kidneys ([3]; 24 h after i.v. injection) was 0.30 ± 0.12 %ID g^−1. For the same compound, the large intestine ([3]; 24 h after i.v. injection) was 0.41 ± 0.15 %ID g^−1, the liver ([3]; 24 h after i.v. injection) was 0.04 ± 0.01 %ID g^−1 and the muscle ([3]; 24 h after i.v. injection) was 0.02 ± 0.02 %ID g^−1. The small intestine ([3]; 24 h after i.v. injection) was 0.20 ± 0.20 %ID g^−1, the spleen ([3]; 24 h after i.v. injection) was 0.12 ± 0.06 %ID g^−1 and the stomach ([3]; 24 h after i.v. injection) was 0.06 ± 0.05 %ID g^−1. The tumor ([3]; 24 h after i.v. injection) was 8.33 ± 3.09 %ID g^−1, the urine ([3]; 24 h after i.v. injection) was 94.79 ± 7.51 %ID and the “T/B (ratio tumor to blood)” value ([3]; 48 h after i.v. injection) was 193.0. For the same compound, the “T/K (ratio tumor to kidneys)” value ([3]; 48 h after i.v. injection) was 68.4, the “T/M (ratio tumor to muscle)” value ([3]; 48 h after i.v. injection) was 351.4 and the blood ([3]; 48 h after i.v. injection) was 0.04 ± 0.02 %ID g^−1. It also gave a kidneys ([3]; 48 h after i.v. injection) of 0.12 ± 0.03 %ID g^−1, a large intestine ([3]; 48 h after i.v. injection) of 0.84 ± 0.56 %ID g^−1 and a liver ([3]; 48 h after i.v. injection) of 0.17 ± 0.07 %ID g^−1. It also gave a muscle ([3]; 48 h after i.v. injection) of 0.02 ± 0.01 %ID g^−1, a small intestine ([3]; 48 h after i.v. injection) of 0.14 ± 0.07 %ID g^−1 and a spleen ([3]; 48 h after i.v. injection) of 0.97 ± 0.62 %ID g^−1. For the same compound, the stomach ([3]; 48 h after i.v. injection) was 0.03 ± 0.03 %ID g^−1, the tumor ([3]; 48 h after i.v. injection) was 8.03 ± 7.31 %ID g^−1 and the urine ([3]; 48 h after i.v. injection) was 97.75 ± 0.34 %ID. For the same compound, the logD [4] was −5.18 ± 0.04 and the “in vivo CLI tumor visualization” value [5] was “excellent tumor visualization”.
